Measurements taken from the supplement of paper PMC10307832.

Assays:
Experiment in all cases: relative viability (nuclei count vs DMSO), 5 days (fraction); higher = more cells survive
NCI-H1355 = system: NCI-H1355
Summary of the method: (§1)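 Relative viability equals treated-well nuclei counts divided by vehicle-well nuclei counts. Counts came from 4× images of lung cancer cell lines grown in 1536-well plates for 5 days after pin-tool dosing on the day after seeding. Dosing used one drug alone or a fixed anchor-drug dose plus five library-drug doses (not always all listed) in √10 steps, and values are medians of duplicate plates.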

HCC-366 = system: HCC-366
Summary of the method: as §1

NCI-H1666 = system: NCI-H1666
Summary of the method: as §1

HCC-44 = system: HCC-44
Summary of the method: as §1

NCI-H1734 = system: NCI-H1734
Summary of the method: as §1

NCI-H2009 = system: NCI-H2009
Summary of the method: as §1

NCI-H838 = system: NCI-H838
Summary of the method: as §1

IA-LM = system: IA-LM
Summary of the method: as §1

HCC-78 = system: HCC-78
Summary of the method: as §1

NCI-H520 = system: NCI-H520
Summary of the method: as §1

NCI-H1703 = system: NCI-H1703
Summary of the method: as §1

ABC-1 = system: ABC-1
Summary of the method: as §1

NCI-H727 = system: NCI-H727
Summary of the method: as §1

NCI-H2405 = system: NCI-H2405
Summary of the method: as §1

NCI-H1755 = system: NCI-H1755
Summary of the method: as §1

NCI-H1650 = system: NCI-H1650
Summary of the method: as §1

UMC-11 = system: UMC-11
Summary of the method: as §1

SW 1573 = system: SW 1573
Summary of the method: as §1

BEN = system: BEN
Summary of the method: as §1

NCI-H2228 = system: NCI-H2228
Summary of the method: as §1

LOU-NH91 = system: LOU-NH91
Summary of the method: as §1

NCI-H2347 = system: NCI-H2347
Summary of the method: as §1

201T = system: 201T
Summary of the method: as §1

CCCCCCCCCCCC1=C(O)C(=O)C=C(O)C1=O [Embelin] + CC(C)C[C@H](NC(=O)[C@H](Cc1ccccc1)NC(=O)c1cnccn1)B(O)O [Bortezomib] (partner 0.002 µM)
relative viability (NCI-H1355; first compound 0.08 µM): 1.16 | relative viability (NCI-H1355; first compound 0.8 µM): 1.24 | relative viability (NCI-H1355; first compound 2.53 µM): 1.21 | relative viability (NCI-H1355; first compound 8 µM): 1.02 | relative viability (HCC-366; first compound 0.08 µM): 1.05 | relative viability (HCC-366; first compound 0.8 µM): 1.05 | relative viability (HCC-366; first compound 2.53 µM): 1.43 | relative viability (HCC-366; first compound 8 µM): 1.1 | relative viability (NCI-H1666; first compound 0.08 µM): 0.655 | relative viability (NCI-H1666; first compound 0.8 µM): 1.05 | relative viability (NCI-H1666; first compound 2.53 µM): 0.922 | relative viability (NCI-H1666; first compound 8 µM): 0.829 | relative viability (HCC-44; first compound 0.08 µM): 0.838 | relative viability (HCC-44; first compound 0.8 µM): 0.865 | relative viability (HCC-44; first compound 2.53 µM): 0.864 | relative viability (HCC-44; first compound 8 µM): 0.897 | relative viability (NCI-H1734; first compound 0.08 µM): 0.882 | relative viability (NCI-H1734; first compound 0.8 µM): 1.35 | relative viability (NCI-H1734; first compound 2.53 µM): 1.14 | relative viability (NCI-H1734; first compound 8 µM): 0.944 | relative viability (NCI-H2009; first compound 0.08 µM): 1.07 | relative viability (NCI-H2009; first compound 0.8 µM): 1.18 | relative viability (NCI-H2009; first compound 2.53 µM): 0.916 | relative viability (NCI-H2009; first compound 8 µM): 0.9 | relative viability (NCI-H838; first compound 0.08 µM): 1.38 | relative viability (NCI-H838; first compound 0.8 µM): 1.12 | relative viability (NCI-H838; first compound 2.53 µM): 0.72 | relative viability (NCI-H838; first compound 8 µM): 0.936 | relative viability (IA-LM; first compound 0.08 µM): 0.769 | relative viability (IA-LM; first compound 0.8 µM): 0.904 | relative viability (IA-LM; first compound 2.53 µM): 0.913 | relative viability (IA-LM; first compound 8 µM): 0.381 | relative viability (HCC-78; first compound 0.08 µM): 0.605 | relative viability (HCC-78; first compound 0.8 µM): 0.532 | relative viability (HCC-78; first compound 2.53 µM): 0.555 | relative viability (HCC-78; first compound 8 µM): 0.438 | relative viability (NCI-H520; first compound 0.08 µM): 0.848 | relative viability (NCI-H520; first compound 0.8 µM): 0.255 | relative viability (NCI-H520; first compound 2.53 µM): 0.668 | relative viability (NCI-H520; first compound 8 µM): 0.511 | relative viability (NCI-H1703; first compound 0.08 µM): 0.26 | relative viability (NCI-H1703; first compound 0.8 µM): 0.549 | relative viability (NCI-H1703; first compound 2.53 µM): 0.361 | relative viability (NCI-H1703; first compound 8 µM): 0.236 | relative viability (ABC-1; first compound 0.08 µM): 0.299 | relative viability (ABC-1; first compound 0.8 µM): 0.371 | relative viability (ABC-1; first compound 2.53 µM): 0.252 | relative viability (ABC-1; first compound 8 µM): 0.257 | relative viability (NCI-H727; first compound 0.08 µM): 0.813 | relative viability (NCI-H727; first compound 0.8 µM): 0.997 | relative viability (NCI-H727; first compound 2.53 µM): 1.02 | relative viability (NCI-H727; first compound 8 µM): 0.798 | relative viability (NCI-H2405; first compound 0.08 µM): 1.03 | relative viability (NCI-H2405; first compound 0.8 µM): 1.03 | relative viability (NCI-H2405; first compound 2.53 µM): 1.02 | relative viability (NCI-H2405; first compound 8 µM): 1.01 | relative viability (NCI-H1755; first compound 0.08 µM): 0.987 | relative viability (NCI-H1755; first compound 0.8 µM): 1.07 | relative viability (NCI-H1755; first compound 2.53 µM): 0.971 | relative viability (NCI-H1755; first compound 8 µM): 0.917 | relative viability (NCI-H1650; first compound 0.08 µM): 0.191 | relative viability (NCI-H1650; first compound 0.8 µM): 0.189 | relative viability (NCI-H1650; first compound 2.53 µM): 0.203 | relative viability (NCI-H1650; first compound 8 µM): 0.213 | relative viability (UMC-11; first compound 0.08 µM): 0.771 | relative viability (UMC-11; first compound 0.8 µM): 0.966 | relative viability (UMC-11; first compound 2.53 µM): 0.896 | relative viability (UMC-11; first compound 8 µM): 0.547 | relative viability (SW 1573; first compound 0.08 µM): 1.26 | relative viability (SW 1573; first compound 0.8 µM): 1.29 | relative viability (SW 1573; first compound 2.53 µM): 1.2 | relative viability (SW 1573; first compound 8 µM): 1.27 | relative viability (BEN; first compound 0.08 µM): 0.85 | relative viability (BEN; first compound 0.8 µM): 1.04 | relative viability (BEN; first compound 2.53 µM): 0.941 | relative viability (BEN; first compound 8 µM): 0.899 | relative viability (NCI-H2228; first compound 0.08 µM): 0.939 | relative viability (NCI-H2228; first compound 0.8 µM): 1.03 | relative viability (NCI-H2228; first compound 2.53 µM): 1.29 | relative viability (NCI-H2228; first compound 8 µM): 1.26 | relative viability (LOU-NH91; first compound 0.08 µM): 0.554 | relative viability (LOU-NH91; first compound 0.8 µM): 0.578 | relative viability (LOU-NH91; first compound 2.53 µM): 0.504 | relative viability (LOU-NH91; first compound 8 µM): 0.509 | relative viability (NCI-H2347; first compound 0.08 µM): 1.15 | relative viability (NCI-H2347; first compound 0.8 µM): 1.1 | relative viability (NCI-H2347; first compound 2.53 µM): 1.15 | relative viability (NCI-H2347; first compound 8 µM): 1.05 | relative viability (201T; first compound 0.08 µM): 1.06 | relative viability (201T; first compound 0.8 µM): 1.17 | relative viability (201T; first compound 2.53 µM): 1.09 | relative viability (201T; first compound 8 µM): 1.09
